Measurements taken from PubChem BioAssay (NCI).
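Grown in 96-well plates, cells were treated for 48 hours with each compound at five concentrations. Insufficient inhibition: endpoint recorded as highest concentration tested. At the GI50, growth is halved. TGI denotes the concentration required for complete inhibition of growth.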

Experiments:
Experiment in all cases: DTP human tumour cell line panel, 48 h
[1] = system: RXF 393 renal
[2] = system: NCI-H460 lung
[3] = system: CCRF-CEM leukemia
[4] = system: SK-MEL-2 melanoma
[5] = system: MDA-MB-435
[6] = system: T-47D breast
[7] = system: NCI-H23 lung
[8] = system: OVCAR-5 ovarian
[9] = system: A549 NSCLC
[10] = system: MALME-3M melanoma
[11] = system: 786-0 renal
[12] = system: SR leukemia
[13] = system: U251 CNS
[14] = system: CAKI-1 renal
[15] = system: SK-MEL-5 melanoma
[16] = system: SK-MEL-28 melanoma
[17] = system: MCF7 breast
[18] = system: MOLT-4 leukemia
[19] = system: HOP-62 NSCLC
[20] = system: NCI/ADR-RES ovarian
[21] = system: ACHN renal
[22] = system: M14 melanoma
[23] = system: OVCAR-4 ovarian
[24] = system: SNB-75 CNS
[25] = system: SK-OV-3 ovarian
[26] = system: RPMI-8226 leukemia
[27] = system: COLO 205 colon
[28] = system: K-562 leukemia
[29] = system: IGROV1 ovarian
[30] = system: SW-620 colon
[31] = system: UACC-62 melanoma
[32] = system: SF-268 CNS
[33] = system: SNB-19 CNS
[34] = system: HCT-15 colon
[35] = system: PC-3 prostate
[36] = system: EKVX NSCLC
[37] = system: OVCAR-3 ovarian
[38] = system: A498 renal
[39] = system: DU-145 prostate
[40] = system: UACC-257 melanoma
[41] = system: UO-31 renal
[42] = system: HCC-2998 colon
[43] = system: SF-295 CNS
[44] = system: MDA-MB-231 breast
[45] = system: NCI-H522 lung
[46] = system: KM12 colon
[47] = system: HL-60(TB) leukemia
[48] = system: TK-10 renal
[49] = system: HOP-92 NSCLC
[50] = system: SF-539 CNS
[51] = system: BT-549 breast
[52] = system: LOX IMVI melanoma
[53] = system: HT29 colon
[54] = system: SN12C renal

With `COc1cc2ccc3ccncc3c2cc1OC` the TGI [1] was > 10 µM, the TGI [2] was > 10 µM and the TGI [3] was > 10 µM. The TGI [4] was > 10 µM, the TGI [5] was > 10 µM and the TGI [6] was > 10 µM. The TGI [7] was > 10 µM, the TGI [8] was > 10 µM and the TGI [9] was > 10 µM. For the same compound, the TGI [10] was > 10 µM, the TGI [11] was > 10 µM and the TGI [12] was > 10 µM. The TGI [13] was > 10 µM, the TGI [14] was > 10 µM and the TGI [15] was > 10 µM. For the same compound, the TGI [16] was > 10 µM, the TGI [17] was > 10 µM and the TGI [18] was > 10 µM. The TGI [19] was > 10 µM, the TGI [20] was > 10 µM and the TGI [21] was > 10 µM. The TGI [22] was > 10 µM, the TGI [23] was > 10 µM and the TGI [24] was > 10 µM. For the same compound, the TGI [25] was > 10 µM, the TGI [26] was > 10 µM and the TGI [27] was > 10 µM. The TGI [28] was > 10 µM, the TGI [29] was > 10 µM and the TGI [30] was > 10 µM. For the same compound, the TGI [31] was > 10 µM and the TGI [32] was > 10 µM.

With `Cc1cc(NCCCCCCNc2cc(C)nc3ccc(N)cc23)c2cc(N)ccc2n1` the TGI [13] was > 100 µM and the TGI [33] was > 100 µM.

Work on `C=C(C)[C@@H]1CC[C@]2(C(=O)NC(C)=O)CC[C@]3(C)[C@H](CC[C@@H]4[C@@]5(C)CCCNC(C)(C)[C@@H]5CC[C@]43C)[C@@H]12` yielded a GI50 [1] of 1.76 µM, a TGI [1] of 3.26 µM and a GI50 [2] of 1.64 µM. The TGI [2] was 3.13 µM, the GI50 [3] was 1.65 µM and the TGI [3] was 4.55 µM. The GI50 [4] was 1.92 µM, the TGI [4] was 3.73 µM and the GI50 [5] was 1.55 µM. The TGI [5] was 3.11 µM, the GI50 [34] was 1.52 µM and the TGI [34] was 2.97 µM. It also gave a GI50 [35] of 1.59 µM, a TGI [35] of 3.5 µM and a GI50 [36] of 1.6 µM. The TGI [36] was 3.23 µM, the GI50 [37] was 1.59 µM and the TGI [37] was 3.04 µM. For the same compound, the GI50 [7] was 1.76 µM, the TGI [7] was 3.51 µM and the GI50 [8] was 1.53 µM. It also gave a TGI [8] of 2.88 µM, a GI50 [9] of 1.61 µM and a TGI [9] of 3.33 µM. The GI50 [10] was 1.34 µM, the TGI [10] was 2.65 µM and the GI50 [12] was 0.839 µM. It also gave a TGI [12] of 3.07 µM, a GI50 [13] of 1.68 µM and a TGI [13] of 3.26 µM. It also gave a GI50 [38] of 1.53 µM, a TGI [38] of 2.91 µM and a GI50 [14] of 1.64 µM. The TGI [14] was 3.1 µM, the GI50 [39] was 1.57 µM and the TGI [39] was 2.94 µM. It also gave a GI50 [15] of 1.76 µM, a TGI [15] of 3.15 µM and a GI50 [16] of 1.66 µM. For the same compound, the TGI [16] was 3.04 µM, the GI50 [40] was 1.95 µM and the TGI [40] was 3.75 µM. For the same compound, the GI50 [41] was 1.4 µM, the TGI [41] was 2.69 µM and the GI50 [17] was 1.41 µM. It also gave a TGI [17] of 3 µM, a GI50 [18] of 1.4 µM and a TGI [18] of 3.86 µM. For the same compound, the GI50 [42] was 1.31 µM, the TGI [42] was 2.69 µM and the GI50 [20] was 1.83 µM. It also gave a TGI [20] of 3.68 µM, a GI50 [33] of 1.6 µM and a TGI [33] of 2.96 µM. The GI50 [21] was 1.77 µM, the TGI [21] was 3.15 µM and the GI50 [43] was 1.81 µM. For the same compound, the TGI [43] was 3.24 µM, the GI50 [44] was 1.82 µM and the TGI [44] was 3.29 µM. The GI50 [23] was 1.51 µM, the TGI [23] was 3.23 µM and the GI50 [45] was 1.66 µM. The TGI [45] was 3.56 µM, the GI50 [24] was 1.4 µM and the TGI [24] was 2.83 µM. The GI50 [25] was 1.63 µM, the TGI [25] was 3.22 µM and the GI50 [26] was 1.18 µM. It also gave a TGI [26] of 3.4 µM, a GI50 [46] of 1.51 µM and a TGI [46] of 2.9 µM. For the same compound, the GI50 [47] was 1.35 µM, the TGI [47] was 3.2 µM and the GI50 [48] was 1.79 µM. It also gave a TGI [48] of 3.38 µM, a GI50 [49] of 1.33 µM and a TGI [49] of 2.89 µM. The GI50 [27] was 1.19 µM, the TGI [27] was 2.98 µM and the GI50 [50] was 1.51 µM. The TGI [50] was 2.84 µM, the GI50 [51] was 1.68 µM and the TGI [51] was 3.28 µM. For the same compound, the GI50 [52] was 1.18 µM, the TGI [52] was 2.48 µM and the GI50 [28] was 1.12 µM. The TGI [28] was 3.18 µM, the GI50 [53] was 1.21 µM and the TGI [53] was 3.06 µM. It also gave a GI50 [29] of 1.69 µM, a TGI [29] of 3.15 µM and a GI50 [30] of 1.53 µM. It also gave a TGI [30] of 3.07 µM, a GI50 [31] of 1.73 µM and a TGI [31] of 3.11 µM. For the same compound, the GI50 [32] was 1.69 µM, the TGI [32] was 3.25 µM and the GI50 [54] was 1.47 µM. For the same compound, the TGI [54] was 2.79 µM.
